Measurements reported in patent US20260144776A1, “COMBINATION THERAPY FOR A DOPAMINE AGONIST” (priority 2017, published 2026).

Tests used:
[1] = system: animal behavior simulating symptoms of depression; conditions: high doses of pramipexole; cited from earlier work
[2] = system: depressive symptoms in patients with PD; conditions: 12 weeks, 296 PD patients, pramipexole 0.125 to 1.0 mg/kg; placebo 4.0 (SE 0.5), p=0.01; cited from earlier work
humans = conditions: in vivo
Description: The study was single center, single-blind study.
Once a subject had reached his/her first intolerable dose (FID-1), upward dose escalation was discontinued.
All other provisions of the protocol remained unchanged. Assessments were the same as those planned for the dose escalation day.
On each study day, subjects were followed up for up to 8 hours following drug administration for AEs, vital signs, ECGs. In addition, a laboratory panel was taken at screening and at the end of the study.

[3] = system: patients with a DSM-III-R diagnosis of major depression; conditions: pramipexole 5.0 mg group, cited from earlier work

## CCCN[C@H]1CCc2nc(N)sc2C1 [Pramipexole, (S)-6-propylamino-4,5,6,7-tetrahydro-1,3-benzothiazole-2-amine]
[1]
  activity in tests of animal behavior simulating symptoms of depression: active
[2]
  BDI scores decreased by an adjusted: 5.9 (SE 0.5)
humans
  dose limiting toxicity: gastro-intestinal adverse events
[3]; mainly because of adverse events
  patients who discontinued treatment prematurely: 57.6%
[3]; best improvement, no p value against placebo because of drop-out rate
  improvement at week 8 (change from baseline): −15.00
[3]
  patients who reported nausea: 76%
  patients who reported vomiting: 39%
